# Results: the supplement of paper PMC10307832
# Compound: Cc1ccc2nc(NCCN)c3ncc(C)n3c2c1 + COc1cc2c(Oc3ccc(NC(=O)C4(C(=O)Nc5ccc(F)cc5)CC4)cc3F)ccnc2cc1OCCCN1CCOCC1 [Foretinib] (partner 0.25 µM)
# Experiment: relative viability (nuclei count vs DMSO), 5 days (fraction); higher = more cells survive
# Details: first compound 1.265 µM
# How it was run: (§1)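 Medians of duplicate plates are given as relative viability. That measure is the nuclei count in treated wells divided by the count in vehicle wells. Counts were taken on 4× images of lung cancer cell lines in 1536-well plates, 5 days after pin-tool dosing the day after seeding with one drug alone or a fixed anchor-drug dose plus five library-drug doses (not always all listed) in √10 steps.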
row,Cell Line,relative viability
1,NCI-H1563,1.06

# Same assay, conditions: first compound 4 µM
row,Cell Line,relative viability
1,NCI-H2342,1.14
2,NCI-H727,1.18
3,NCI-H1650,0.943
4,EBC-1,0.0989
5,NCI-H1703,0.327
6,NCI-H1993,0.698
7,SW 1573,0.859
8,NCI-H838,0.982
9,LCLC-103H,0.633
10,NCI-H520,0.661
11,NCI-H2126,1.14
12,EMC-BAC-2,1.05
13,NCI-H2085,0.946
14,Calu-6,0.811
15,HCC-366,0.917
16,NCI-H1666,0.921

row,Cell Line,relative viability
1,NCI-H596,0.7
2,COR-L23,0.865
3,COR-L 105,1.15
4,IA-LM,0.928
5,ChaGo-K-1,0.895
6,A549,0.855
7,SK-MES-1,0.875
8,SW 900,0.772
9,NCI-H2009,1.04
10,NCI-H661,0.967
11,SK-LU-1,0.781
12,NCI-H1299,1
13,NCI-H2228,0.749
14,NCI-H2023,0.708
15,NCI-H1623,0.79
16,NCI-H1563,0.991

# Compound: Cc1ccc2nc(NCCN)c3ncc(C)n3c2c1 + NC(=O)Nc1cc(-c2cccc(F)c2)sc1C(=O)N[C@H]1CCCNC1 [AZD7762] (partner 0.2 µM)
# Experiment: as above
# Details: first compound 0.04 µM
# How it was run: as §1
row,Cell Line,relative viability
1,NCI-H522,0.754
2,NCI-H2342,0.548
3,NCI-H727,0.611
4,NCI-H1703,0.131
5,NCI-H1993,0.937
6,NCI-H838,1.05
7,LCLC-103H,0.877
8,NCI-H2126,1.12
9,EMC-BAC-2,1.2
10,NCI-H2085,1.06
11,HCC-366,0.272
12,NCI-H1666,0.903
13,NCI-H596,1.07
14,ChaGo-K-1,0.946
15,HCC-44,0.988
16,NCI-H1792,0.822
17,NCI-H1648,0.687

# Same assay, conditions: first compound 0.1265 µM
row,Cell Line,relative viability
1,NCI-H522,0.778
2,NCI-H2342,0.655
3,NCI-H1703,0.114
4,NCI-H1993,0.875
5,NCI-H838,0.932
6,LCLC-103H,0.821
7,NCI-H2126,1.01
8,EMC-BAC-2,1.11
9,NCI-H2085,0.996
10,HCC-366,0.278
11,NCI-H1666,0.961
12,NCI-H596,1.08
13,ChaGo-K-1,0.901
14,HCC-44,1.05
15,SW 900,0.56
16,NCI-H1792,0.665
17,NCI-H1648,0.682

# Same assay, conditions: first compound 0.4 µM
row,Cell Line,relative viability
1,NCI-H522,0.634
2,NCI-H2342,0.479
3,NCI-H727,0.609
4,NCI-H1993,0.554
5,NCI-H838,0.914
6,LCLC-103H,0.654
7,NCI-H2126,0.965
8,EMC-BAC-2,1.04
9,NCI-H2085,0.916
10,HCC-366,0.318
11,NCI-H1666,0.774
12,NCI-H596,1.04
13,ChaGo-K-1,0.874
14,HCC-44,0.933
15,SW 900,0.438
16,NCI-H1648,0.587

# Same assay, conditions: first compound 1.265 µM
row,Cell Line,relative viability
1,NCI-H522,0.843
2,NCI-H2342,0.452
3,NCI-H727,0.595
4,NCI-H1703,0.111
5,NCI-H1993,0.727
6,NCI-H838,0.858
7,LCLC-103H,0.772
8,NCI-H2126,1.14
9,EMC-BAC-2,1.06
10,NCI-H2085,0.952
11,HCC-366,0.228
12,NCI-H1666,0.756
13,NCI-H596,0.915
14,ChaGo-K-1,0.808
15,HCC-44,0.992
16,SW 900,0.694
17,NCI-H1792,0.768
18,NCI-H1648,0.709

# Same assay, conditions: first compound 4 µM
row,Cell Line,relative viability
1,NCI-H522,0.765
2,NCI-H2342,0.479
3,NCI-H727,0.573
4,NCI-H1703,0.132
5,NCI-H1993,0.625
6,NCI-H838,0.874
7,LCLC-103H,0.752
8,NCI-H2126,0.936
9,EMC-BAC-2,1.02
10,NCI-H2085,1
11,HCC-366,0.239
12,NCI-H1666,0.841
13,NCI-H596,1.11
14,ChaGo-K-1,0.921
15,HCC-44,1.02
16,SW 900,0.736
17,NCI-H1792,0.674
18,NCI-H1648,0.737

# Compound: O=C(/C=C/c1ccccc1)NC(NC(=S)Nc1cccc2cccnc12)C(Cl)(Cl)Cl [Salubrinal] + Cc1nc(NC(=O)N2CCC[C@H]2C(N)=O)sc1-c1ccnc(C(C)(C)C(F)(F)F)c1 [Alpelisib] (partner 2 µM)
# Experiment: as above
# Details: first compound 0.08 µM
# How it was run: as §1
row,Cell Line,relative viability
1,NCI-H727,0.768
2,EBC-1,0.869
3,NCI-H1703,0.394
4,NCI-H1993,0.62
5,SW 1573,0.802
6,NCI-H838,1.03
7,LCLC-103H,0.953
8,NCI-H520,0.904
9,NCI-H2126,0.808
10,EMC-BAC-2,0.802
11,NCI-H2085,1.09
12,Calu-6,0.94
13,HCC-366,0.609
14,NCI-H1666,0.985
15,NCI-H596,0.55
16,COR-L23,0.908
17,COR-L 105,1.01
18,IA-LM,0.828
19,HCC-44,0.904
20,A549,0.726
21,SK-MES-1,1.01
22,NCI-H2009,1.16
23,NCI-H661,0.572
24,SK-LU-1,1.1
25,NCI-H1299,1.04
26,NCI-H2228,0.87
27,NCI-H1792,0.8
28,NCI-H2023,0.679
29,NCI-H1563,0.882

# Same assay, conditions: first compound 0.253 µM
row,Cell Line,relative viability
1,NCI-H727,0.453
2,EBC-1,0.952
3,NCI-H1703,0.359
4,NCI-H1993,0.595
5,SW 1573,0.909
6,NCI-H838,0.629
7,LCLC-103H,0.917
8,NCI-H520,0.578
9,NCI-H2126,0.767
10,EMC-BAC-2,0.709
11,NCI-H2085,0.879
12,Calu-6,0.936
13,HCC-366,0.361
14,NCI-H1666,0.791
15,NCI-H596,0.426
16,COR-L23,0.792
17,COR-L 105,0.906
18,IA-LM,0.906
19,HCC-44,0.758
20,A549,0.806
21,SK-MES-1,0.888
22,NCI-H2009,1.1
23,NCI-H661,0.864
24,SK-LU-1,0.864
25,NCI-H1299,1.03
26,NCI-H2228,0.582
27,NCI-H2023,0.586
28,NCI-H1563,0.939

# Same assay, conditions: first compound 0.8 µM
row,Cell Line,relative viability
1,NCI-H727,0.63
2,EBC-1,0.976
3,NCI-H1703,0.324
4,NCI-H1993,0.735
5,SW 1573,0.827
6,NCI-H838,0.969
7,LCLC-103H,1.05
8,NCI-H520,1.18
9,NCI-H2126,0.812
10,EMC-BAC-2,0.786
11,NCI-H2085,0.923
12,Calu-6,1.07
13,HCC-366,0.426
14,NCI-H1666,0.923
15,NCI-H596,0.441
16,COR-L23,0.875
17,COR-L 105,1.04
18,IA-LM,0.885
19,HCC-44,0.806
20,A549,0.755
21,SK-MES-1,1.09
22,NCI-H2009,1.19
23,NCI-H661,0.937
24,SK-LU-1,1.35
25,NCI-H1299,1.05
26,NCI-H2228,0.792
27,NCI-H1792,0.646
28,NCI-H2023,0.688
29,NCI-H1563,1.1

# Same assay, conditions: first compound 2.53 µM
row,Cell Line,relative viability
1,NCI-H727,0.602
2,EBC-1,0.811
3,NCI-H1703,0.365
4,NCI-H1993,0.688
5,SW 1573,1.04
6,NCI-H838,1.01
7,LCLC-103H,1.02
8,NCI-H520,0.878
9,NCI-H2126,0.727
10,EMC-BAC-2,0.82
11,NCI-H2085,0.936
12,Calu-6,1.04
13,HCC-366,0.472
14,NCI-H1666,1.01
15,NCI-H596,0.572
16,COR-L23,0.965
17,COR-L 105,1.06
18,IA-LM,0.66
19,HCC-44,0.84
20,A549,0.76
21,SK-MES-1,0.992
22,NCI-H2009,1.16
23,NCI-H661,0.845
24,SK-LU-1,1.07
25,NCI-H1299,1.15
26,NCI-H2228,0.861
27,NCI-H1792,0.676
28,NCI-H2023,0.587
29,NCI-H1563,0.925

# Same assay, conditions: first compound 8 µM
row,Cell Line,relative viability
1,NCI-H727,0.561
2,EBC-1,0.736
3,NCI-H1703,0.374
4,NCI-H1993,0.676
5,SW 1573,0.604
6,NCI-H838,0.942
7,LCLC-103H,0.932
8,NCI-H520,0.949
9,NCI-H2126,0.725
10,EMC-BAC-2,0.702
11,NCI-H2085,0.981
12,Calu-6,0.942
13,HCC-366,0.326
14,NCI-H1666,0.993
15,NCI-H596,0.528
16,COR-L23,0.631
17,COR-L 105,0.831
18,IA-LM,0.747
19,HCC-44,0.671
20,A549,0.616
21,SK-MES-1,0.664
22,NCI-H2009,1.07
23,NCI-H661,0.686
24,SK-LU-1,0.951
25,NCI-H1299,0.982
26,NCI-H2228,0.725
27,NCI-H1792,0.611
28,NCI-H2023,0.488
29,NCI-H1563,0.878
